In brackets after ≈: the same amount, converted by molar mass.

The test system of data set [1] is Klebsiella pneumoniae ATCC10031. The data set is described as follows: MIC against Klebsiella pneumoniae ATCC10031. The format is cell-based.
For a further data set, the system named is MRSA DM09808R. Nature of the data set: MIC against MRSA DM09808R. The format is cell-based, Staphylococcus aureus. The settings on record: Methicillin-resistant S. aureus DM09808R.
Data set [2] in a line: pH value in different media. It counts as physicochemical. The text has this: The pH values were obtained using an electronic pH meter.
Data set [3] is classed as physicochemical. The settings on record: pH 7. How it is done: The solvent was added stepwise until the compound was dissolved completely. Then, the stock solution was diluted to series of diluents and the absorbance of each diluent was determined.
The subject of data set [4] is Bacillus cereus ATCC11778. Nature of the data set: MIC against Bacillus cereus ATCC11778. The format is cell-based.
For another data set, the system named is MRSA DM21455. Nature of the data set: MIC against MRSA DM21455. The settings on record: Methicillin-resistant S. aureus DM21455, Source: Eye. The format is cell-based, Staphylococcus aureus.
The test system of data set [5] is Staphylococcus aureus ATCC29213. Nature of the data set: MIC against S. aureus ATCC29213. It counts as cell-based.
Data set [6] deals with Pseudomonas aeruginosa ATCC27853. The data set is described as follows: MIC against Pseudomonas aeruginosa ATCC27853. It counts as cell-based.
Data set [7] has as its system Mycobacterium tuberculosis. Nature of the data set: microbe, parasite or virus in culture. The conditions noted are these: read-out: MIC100.

With `COC(=O)C(CCCNC(=N)N)NC(=O)COc1cc2oc3cc(OCC(=O)NC(CCCNC(=N)N)C(=O)OC)c(OC)c(CC=C(C)C)c3c(=O)c2c(O)c1CC=C(C)C` (stereo not shown) [AM-052], the MIC99 (as a rule, the lowest concentration that inhibits either 99% of growth or 99% of the strains tested, depending on the study) came to 6.25 µg/mL (≈ 7.21 µM) in [1]; 3.125 µg/mL (≈ 3.6 µM) against MRSA DM09808R; 3.125 µg/mL (≈ 3.6 µM) in data set [4]; 1.56 µg/mL (≈ 1.8 µM) with MRSA DM21455; 6.25 µg/mL (≈ 7.21 µM) in data set [5]; 12.5 µg/mL (≈ 14.4 µM) in [6]. Further, the pH in [2] (Saline, 50 μg/ml compound) came to 5.33 ± 0.05; in data set [2] (Saline, 100 μg/ml compound) it was 5.33 ± 0.01; in [2] (Water, 50 μg/ml compound), 6.52 ± 0.29; in data set [2] (Water, 100 μg/ml compound), 7.66 ± 0.33. For the same compound, the Solubility result in data set [3] is “not soluble”. Also, the concentration for 50% haemolysis (HC50) – broadly, the concentration giving 50% haemolysis – in the data set with red blood cell was 238 µg/mL.

For `CC[C@@H](CO)NCCN[C@@H](CC)CO` [Ethambutol], in [7], the MIC was 20 µM (≈ 4.09 µg/mL).

These data come from US20190002429A1, “Derivatives of Xanthone Compounds” (Agency for Science, Technology and Research, priority 2011, published 2019).
